One data set has as its system NPC. Put plainly: Preliminary investigation of NPC integrity under OMe-Syn treatment.
Data set [1] addresses T1, purified N-terminal partial domain of NUP153 (Homo sapiens, UniProt P49790).
T1 construct: a PCR-amplified N-terminus (amino acids 235-326) cDNA of NUP153 (NM_005124); inferred from the pET-28a vector and Ni-NTA purification; made in house; host or cells: Rosetta (DE3) E. coli
T1 sequence (P49790 235-326): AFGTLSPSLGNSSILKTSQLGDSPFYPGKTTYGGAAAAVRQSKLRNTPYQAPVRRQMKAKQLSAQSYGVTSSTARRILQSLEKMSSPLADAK
The experiment in a line: Surface plasmon resonance (SPR) analysis, BIAcore 2000. The class given is binding. An excerpt:
To obtain the recombinant NUP153 protein from bacteria, a PCR-amplified N-terminus (amino acids 235-326) cDNA of NUP153 (NM_005124) was into the EcoRI/SalI site of pET-28a expression vector (Novagen, Billerica, Mass.). Rosetta™ (DE3) E. coli strains were transformed with the plasmid and N-terminus partial domain of NUP153 protein was purified using Ni-NTA agarose bead (Quiagen, Hilden, Germany). Bead bound protein was eluted with elution buffer containing high concentration of imidazole according to the manufacturer's instructions.
Biotin and biotinylated OMe-Syn were sequentially immobilized on the surface of a streptavidin-coated sensor chip. Molecular interaction analysis was performed using the BIAcore 2000 (BIAcore AB) as described previously (Shim et al., Chem. Biol 11, 1455-1463 (2004)). The SPR response curves were analyzed with BIAcore Evaluations software, version 3.1. The apparent association and dissociation constants were calculated from the kinetic constants equations: KA=ka/kd, KD=kd/ka
To examine the binding affinity of OMe-Syn to NUP153, the N-terminal partial domain of NUP153, which corresponds to phage coding sequences (FIG. 2E), was cloned and expressed in Escherichia coli. The cloning and purification of recombinant NUP153 is described in the experimental procedures. […]
On the technique in general: In SPR one partner is held on a chip, and binding of the other changes the refractive index at the surface.

Data set [2] deals with intersegmental vessel (ISV) angiogenesis of zebrafish embryos. The experiment in a line: ISV angiogenesis in fli1a:EGFP transgenic zebrafish embryos. The class given is in vivo. To be noted: 30 hpf. The method, then: (§1) Zebrafish were maintained on 14 hours light/dark cycle at 28° C. All experiments involving zebrafish were performed according to the National Institute of Health guidelines. Embryos were collected and raised in Ringer's solution according to standard protocol (Westerfield, 1995). Zebrafish were injected in Ringer's solution at the one-cell stage with morpholino oligonucleotides (MO). MO was obtained from Gene Tools (Philomath, Oreg.) with the following sequence to block 5′ translation of NUP153: 5′-[…]-3′ (SEQ ID NO:2) and splicing of NUP153: 5′-[…]-3′ (SEQ ID NO:3), respectively. DMSO and OMe-Syn stock solution (10 mM in DMSO) were dissolved in ringer's solution to appropriate concentrations. […] Embryos were added to the solutions at one cell stage. Tricaine supplied in Ringer's solution (0.6%, w/v) was used to anesthetize the embryos for imaging. Microscopy images of zebrafish were taken with Fluoview FV1000, Olympus.
(§2) The present inventors previously reported that OMe-Syn, an anti-angiogenic small molecule, inhibited VEGF-induced angiogenesis in vitro and in vivo (Kim et al., Biochem. Biophys. Res. Commun 399, 20-23 (2010)). The anti-angiogenic activity of OMe-Syn was further investigated using fli1a:EGFP transgenic zebrafish, a well-established model organism for studying angiogenesis through visualization of blood vessel development.
The present inventors further examined the function of NUP153 in vivo in intersegmental vessel (ISV) angiogenesis of zebrafish embryos using a morpholino oligonucleotide (MO) specific to NUP153. NUP153-specific MOs that block the splicing (n=31) or translation (n=28) of NUP153 were injected into fli1a:EGFP transgenic embryos at the one-cell stage. The blocking of NUP153 splicing was monitored by reverse transcription-polymerase chain reaction (RT-PCR) (FIG. 6A).

The target in a further data set is T2, NUP153-expressing phage (Homo sapiens, UniProt P49790).
T2 construct: host or cells: T7 phage clone isolated from human cDNA libraries (colon tumor, lung tumor, heart)
T2 sequence (P49790 245-326): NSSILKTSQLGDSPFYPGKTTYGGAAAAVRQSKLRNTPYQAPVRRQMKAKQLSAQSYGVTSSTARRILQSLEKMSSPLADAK
Put plainly: Phage binding and phage competition assay.

Data set [3] concerns vascular endothelial growth factor (VEGF)-induced angiogenesis. The note with it: in vitro and in vivo; Kim et al., 2010; cited from earlier work.
Another data set has as its system VEGF mRNA. The experiment in a line: VEGF mRNA level in treated zebrafish embryos by RT-PCR. The class given is in vivo. To be noted: compared with DMSO-treated controls. The method, then: as §1, §2
The test system of data set [4] is retinal neovascularization. Put plainly: Oxygen-induced retinopathy (OIR), counting vascular lumens. The format is in vivo, C57BL/6 mice. The note with it: mice, 20 μM in 1 μL PBS intravitreously on P14, read at P17, compared to control group. An excerpt: OIR was induced as described by Smith et al. (Smith et al., Invest. Ophthalmol. Vis. Sci 35, 101-111 (1994)) with some modifications (Zhang et al., Diabetologia 44, 757-765 (2001)). Briefly, newborn mice were arbitrarily assigned to experimental and control groups. At postnatal day 7 (P7), pups (8-10 pups) in the experimental group were exposed to hyperoxia (75±0.5% 02) for 5 days (P7-P12) and then returned to normoxia (room air) for 6 days. Neovascularization occurs upon return to normoxia and peaks at P17. To assess the anti-angiogenic activity of OMe-Syn, the pups were injected intravitreously with 20 μM OMe-Syn in 1 μL PBS on P14, when maximum retinal neovascularization began.
At P17, the eyes were removed, fixed in 4% paraformaldehyde in 0.1 M phosphate buffer for 24 hours, and embedded in paraffin. Sagittal sections of 5 μm, each 30 μm apart, were cut through the cornea parallel to the optic nerve. The sections were stained with hematoxylin and eosin to assess retinal vasculature via light microscopy (Carl Zeiss, Chester, Va., USA). Any vascular lumens on the vitreal side of the inner limiting membrane were counted in at least 10 sections from each eye by two independent observers blind to treatment. The average intravitreal vessels/section was calculated for each group. There were at least six animals in each group.

pKd: −log10 of the molar value.

In general, pKd refers to −log10 of the Kd, conventionally taken in molar units. Read a low pKd as a high Kd.

In the case of `CNC[C@H](OC)c1ccc(O)cc1` [OMe-Syn, R-(−)-β-O-Methylsynephrine], the “NPC integrity and NPC protein interactions” value in the data set with NPC was “leaves the NPC intact and does not disrupt NPC protein interactions”. The same molecule gave a pKd in data set [1] of 8.62. Moreover, the “SPR binding of purified NUP153 to immobilized compound” value in data set [1] (compound immobilized on sensor chip, purified NUP153 20 μM) is listed as “specifically bound”. The “viability / toxicity of embryos” value in data set [2] is reported as “without compromising the viability”. Moreover, the “number of complete intersegmental vessels (ISVs) and angiogenic sprouts” value in data set [2] (OMe-Syn 2.5 and 5 μM, 5′-MO 8 ng, sp-MO 12 ng) is listed as “decreased number of complete intersegmental vessels (ISVs) in a dose-dependent manner”. Also, the “binding of NUP153-expressing phage to immobilized compound” value on NUP153-expressing phage (phage binding assay, versus biotin) is given as “specifically bound to OMe-Syn”. On NUP153-expressing phage (pre-incubation with OMe-Syn 50, 100 μM for 1 hour), the “phage competition: binding of phage to immobilized OMe-Syn after pre-incubation” value was “blocked the binding of the phage to immobilized OMe-Syn in a dose-dependent manner”. In data set [3], the “inhibition of VEGF-induced angiogenesis” value was “inhibit vascular endothelial growth factor (VEGF)-induced angiogenesis in vitro and in vivo”. Further, the “VEGF mRNA level” value with VEGF mRNA is recorded as “reduced”. The “number of vascular lumens (retinal neovascularization)” value in data set [4] was “effectively reduced number of vascular lumens”.

These data come from patent US10092548B2, “Pharmaceutical compositions for preventing or treating angiogenic diseases comprising inhibitors of NUP153 gene expression or NUP153 activity as active ingredient” (INDUSTRY-ACADEMIC COOPERATION FOUNDATION, YONSEI UNIVERSITY, priority 2013, dated 2018).
